The conditions of this series: 369.8 K; Liquid; Ebulliometric method (Recirculating still).

± gives the expanded uncertainty stated by the source.

A word on the vapor or sublimation pressure: it is the pressure of vapour in equilibrium with the condensed phase. Consider `CCCO` [propan-1-ol], for which the “vapor or sublimation pressure” value worked out at 100 ± 2 kPa.
